Laboratory results: patent US10369130B2, “Antibacterial compounds” (AZIENDE CHIMICHE RIUNITE ANGELINI FRANCESCO A.C.R.A.F. …, priority 2014, dated 2019)
Structures can show the parent of a compound that is named as a salt.

Legend:
Assay type in all cases: biochemical
Conditions in all cases: single concentration (200, 100 or 50 μM), in duplicate, versus the positive control (vehicle)
Topoisomerase IV [1] = target: T1, Topoisomerase IV (Staphylococcus aureus, UniProt P0C1S7+P0C1U9); test: Topoisomerase IV decatenation assay (S. aureus)
T1 construct: purchased Inspiralis, UK
T1 sequence (P0C1S7 whole entry): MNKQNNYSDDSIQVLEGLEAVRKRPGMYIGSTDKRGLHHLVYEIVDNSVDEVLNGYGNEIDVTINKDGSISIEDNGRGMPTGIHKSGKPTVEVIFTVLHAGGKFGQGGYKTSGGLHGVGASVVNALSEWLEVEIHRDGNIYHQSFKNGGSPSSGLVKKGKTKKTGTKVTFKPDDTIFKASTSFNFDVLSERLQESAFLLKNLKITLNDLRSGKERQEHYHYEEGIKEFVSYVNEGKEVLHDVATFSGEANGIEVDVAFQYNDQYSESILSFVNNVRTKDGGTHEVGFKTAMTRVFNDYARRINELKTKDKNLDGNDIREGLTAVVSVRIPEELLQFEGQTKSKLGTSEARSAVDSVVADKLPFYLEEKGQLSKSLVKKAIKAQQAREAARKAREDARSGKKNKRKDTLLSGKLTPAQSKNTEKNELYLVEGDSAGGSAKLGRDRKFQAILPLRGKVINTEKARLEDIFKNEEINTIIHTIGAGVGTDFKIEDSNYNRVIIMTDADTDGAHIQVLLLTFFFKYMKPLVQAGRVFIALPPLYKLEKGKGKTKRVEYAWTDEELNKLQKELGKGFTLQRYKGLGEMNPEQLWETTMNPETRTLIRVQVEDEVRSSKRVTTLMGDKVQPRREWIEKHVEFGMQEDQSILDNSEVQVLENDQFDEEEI
T1 sequence (P0C1U9 whole entry): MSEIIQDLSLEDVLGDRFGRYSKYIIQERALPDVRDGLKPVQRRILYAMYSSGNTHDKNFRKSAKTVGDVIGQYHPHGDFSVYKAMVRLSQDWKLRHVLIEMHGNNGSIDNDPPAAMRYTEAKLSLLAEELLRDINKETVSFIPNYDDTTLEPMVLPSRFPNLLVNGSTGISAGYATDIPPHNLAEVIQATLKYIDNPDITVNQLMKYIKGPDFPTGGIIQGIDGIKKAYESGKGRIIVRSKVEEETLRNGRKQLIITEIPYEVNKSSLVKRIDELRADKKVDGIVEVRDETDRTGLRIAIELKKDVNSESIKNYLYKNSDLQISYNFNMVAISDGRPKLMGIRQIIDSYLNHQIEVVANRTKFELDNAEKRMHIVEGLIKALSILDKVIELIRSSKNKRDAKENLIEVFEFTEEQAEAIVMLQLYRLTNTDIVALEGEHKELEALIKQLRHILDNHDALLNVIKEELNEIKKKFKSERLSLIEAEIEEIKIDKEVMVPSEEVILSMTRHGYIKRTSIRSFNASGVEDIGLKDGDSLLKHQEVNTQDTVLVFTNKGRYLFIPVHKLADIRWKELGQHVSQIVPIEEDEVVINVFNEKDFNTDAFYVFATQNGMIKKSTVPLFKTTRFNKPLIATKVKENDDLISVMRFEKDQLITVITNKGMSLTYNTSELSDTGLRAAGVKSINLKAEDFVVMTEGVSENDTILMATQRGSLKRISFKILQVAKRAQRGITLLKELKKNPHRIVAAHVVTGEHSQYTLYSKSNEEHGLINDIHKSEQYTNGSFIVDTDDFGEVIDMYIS
Experimental: (§1) The above compounds were tested for the inhibition of the enzyme DNA gyrase in a gyrase supercoiling assay and for the inhibition of the enzyme topoisomerase IV in a decatenation assay, in both Gram positive and Gram negative bacteria, according to the following methods.
(§2) Both the assays were carried out according to a set-up method modified from the article to Blanche F, et al. “Differential Behaviors of Staphylococcus aureus and Escherichia coli Type II DNA Topoisomerases”, Antimicrob.
(§3) The compounds were screened at single concentration (200, 100 or 50 μM), in duplicate.
(§4) Ciprofloxacin and novobiocin were used as reference compounds, at single concentration of 200 and 50 μM, respectively.
(§5) Topoisomerase IV Decatenation Assay
(§6) S. aureus and E. coli Topoisomerase IV decatenation kits (Inspiralis, UK) were used. A master mix with a total volume sufficient for the number of reactions to perform was prepared with the following reagents: 5× assay buffer (50 mM HEPES-KOH (pH 7.6), 100 mM potassium glutamate, 10 mM magnesium acetate, 10 mM DTT, 1 mM ATP, 50 μg/ml albumin), kDNA substrate (200 ng/reaction), RNase-DNase free water. Aliquots of this mix were dispensed in each tube, then 10× compound stock solutions or vehicle control (DMSO), were added in each reaction tube.
(§7) Reaction was started with Topoisomerase IV enzyme (0.5 U/reaction) addition.
(§8) A sample added with an equal volume of dilution buffer was used as negative control (without enzyme).
(§9) The reaction tubes were gentle vortexed and incubated 30 minutes at 37° C. Each reaction was stopped by adding 30 μl of Stop Buffer and 30 μl of chloroform/isoamyl alcohol (24/1), briefly vortexed for 5-10 seconds and centrifuged at 20000×g for 2 minutes. Samples taken from the upper phase were loaded into 1% agarose gel and subjected to electrophoresis for 1 hour at 80V constant voltage in TAE (40 mM Tris-acetate, 2 mM EDTA).
(§10) Data acquisition and analysis. Due to the high molecular mass, kDNA could not enter an agarose gel under normal electrophoresis conditions, but remained in the wells. In the presence of Topo IV topoisomerase mini-circles (2.5 Kb) were released from kDNA by decatenation and were quickly and easily resolved in the gel at relatively high voltages.
(§11) Bands were visualized by ethidium bromide staining (dil 1:20000) for 30 minutes followed by destaining in distilled water for 10 minutes.
(§12) For single concentration screening assay, in order to evaluate the compounds activity on the enzymes, the bands of decatenated DNAs in the gel were photographed by a digital imaging system ImageQuant LAS 4000 (GE Healthcare) according to manufacturer's instructions.
(§13) The fluorescent intensity of each band was analyzed by ImageQuant TL software and it was expressed as volume (volume of the uncalibrated quantity of material in the image feature after subtraction of the background intensity by using rolling ball method).
(§14) Each band intensity was compared, as percentage, to vehicle sample band intensity, which served as positive control, on the same gel.
(§15) Inhibitory activity was expressed as percent of inhibition versus the positive control.

DNA gyrase [2] = target: T2, DNA gyrase (Escherichia coli, UniProt P0AES4+P0AES6); test: DNA gyrase supercoiling assay (E. coli)
T2 construct: purchased Inspiralis, UK
Experimental: as §1, §2, §3, §4
(§16) DNA Gyrase Supercoiling Assay.
(§17) Reagents from S. aureus and E. coli Gyrase Supercoiling Assay kits (Inspiralis, UK) were used. A master mix with a total volume sufficient for the number of reactions to perform was prepared with the following reagents: 5× assay buffer, relaxed pBR322 substrate (0.5 μg/reaction), RNase-DNase free water. Aliquotes of this mix were dispensed in each tube, then 10× compound stock solutions or vehicle control (DMSO), were added to each reaction tube.
(§18) Reaction was started with E. Coli (2 U/reaction) or S. aureus (1 U/reaction) gyrase enzyme addition.
as §8
(§19) The reaction tubes were gentle vortexed and incubated 30 minutes at 37° C. Each reaction was stopped by adding 30 μl of Stop Buffer and 30 μl chloroform/isoamyl alcohol (24/1), briefly vortexed for 5-10 seconds and centrifuged at 20000×g for 2 minutes. Samples were loaded onto 1% agarose gel and subjected to electrophoresis for 1 hour at 80V constant voltage in TAE (40 mM Tris-acetate, 2 mM EDTA).
(§20) Data acquisition and analysis. Treatment of relaxed pBR322 with DNA gyrase converted the relaxed topoisomers (DNAs of different linking number) to the supercoiled form of the plasmid, which migrates faster on an agarose gel. An upper band might also be visible, which consists of open-circular (nicked) DNA which is present in the relaxed substrate but co-migrates with some of the relaxed topoisomers.
as §11
(§21) In order to evaluate the compounds activity on the enzyme, the bands of supercoiled DNAs in the gel were photographed by a digital imaging system ImageQuant LAS 4000 (GE Healthcare) according to manufacturer's instructions.
(§22) The fluorescent intensity of each band was analysed by ImageQuant TL software and it was expressed as volume (volume of the uncalibrated quantity of material in the image feature after subtraction of the background intensity by using rolling ball method).
as §14, §15

DNA gyrase [3] = target: T3, DNA gyrase (Staphylococcus aureus, UniProt P0A0K8+P20831); test: DNA gyrase supercoiling assay (S. aureus)
T3 construct: purchased Inspiralis, UK
T3 sequence (P20831 whole entry): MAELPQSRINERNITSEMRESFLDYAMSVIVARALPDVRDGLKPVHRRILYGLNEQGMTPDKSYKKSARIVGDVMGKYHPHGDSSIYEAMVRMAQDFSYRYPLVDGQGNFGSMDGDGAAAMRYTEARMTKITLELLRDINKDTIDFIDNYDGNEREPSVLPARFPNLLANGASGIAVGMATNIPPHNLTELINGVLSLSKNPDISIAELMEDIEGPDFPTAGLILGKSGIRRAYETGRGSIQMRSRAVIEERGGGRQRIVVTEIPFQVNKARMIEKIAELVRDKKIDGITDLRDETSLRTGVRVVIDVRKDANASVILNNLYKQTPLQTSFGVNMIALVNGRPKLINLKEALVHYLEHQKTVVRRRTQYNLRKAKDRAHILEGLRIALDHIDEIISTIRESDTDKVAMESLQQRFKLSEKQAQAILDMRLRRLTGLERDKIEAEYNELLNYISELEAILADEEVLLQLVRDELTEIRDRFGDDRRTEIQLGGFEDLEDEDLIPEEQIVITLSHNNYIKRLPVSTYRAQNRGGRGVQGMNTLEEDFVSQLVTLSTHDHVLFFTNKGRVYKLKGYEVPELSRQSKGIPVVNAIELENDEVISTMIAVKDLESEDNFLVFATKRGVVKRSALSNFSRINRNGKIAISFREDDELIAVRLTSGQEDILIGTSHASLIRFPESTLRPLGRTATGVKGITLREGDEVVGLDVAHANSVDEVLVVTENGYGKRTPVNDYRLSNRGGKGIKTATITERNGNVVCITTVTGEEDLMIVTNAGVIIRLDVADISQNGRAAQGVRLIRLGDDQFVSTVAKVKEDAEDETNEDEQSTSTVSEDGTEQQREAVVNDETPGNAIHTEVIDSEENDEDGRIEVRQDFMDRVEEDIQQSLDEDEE
T3 sequence (P0A0K8 whole entry): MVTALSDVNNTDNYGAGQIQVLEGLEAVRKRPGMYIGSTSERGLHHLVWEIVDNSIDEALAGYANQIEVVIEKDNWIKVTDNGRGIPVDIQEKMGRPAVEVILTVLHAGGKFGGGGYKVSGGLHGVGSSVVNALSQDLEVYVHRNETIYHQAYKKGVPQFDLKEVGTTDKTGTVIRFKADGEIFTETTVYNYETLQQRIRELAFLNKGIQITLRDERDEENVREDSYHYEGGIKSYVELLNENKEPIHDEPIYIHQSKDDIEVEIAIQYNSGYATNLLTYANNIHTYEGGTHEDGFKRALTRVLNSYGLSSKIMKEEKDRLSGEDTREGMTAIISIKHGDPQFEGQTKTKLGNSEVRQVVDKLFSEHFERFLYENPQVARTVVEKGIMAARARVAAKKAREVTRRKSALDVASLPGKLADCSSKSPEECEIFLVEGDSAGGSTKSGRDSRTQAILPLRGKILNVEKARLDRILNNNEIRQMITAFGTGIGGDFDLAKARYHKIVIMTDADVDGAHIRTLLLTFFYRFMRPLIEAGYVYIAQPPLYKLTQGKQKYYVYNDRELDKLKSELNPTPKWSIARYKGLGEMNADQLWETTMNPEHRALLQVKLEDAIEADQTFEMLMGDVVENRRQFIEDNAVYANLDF
Experimental: as §1, §2, §3, §4, §16, §17, §18, §8, §19, §20, §11, §21, §22, §14, §15

Topoisomerase IV [4] = target: T4, Topoisomerase IV (Escherichia coli, UniProt P0AFI2+P20083); test: Topoisomerase IV decatenation assay (E. coli)
T4 construct: purchased Inspiralis, UK
T4 sequence (P20083 whole entry): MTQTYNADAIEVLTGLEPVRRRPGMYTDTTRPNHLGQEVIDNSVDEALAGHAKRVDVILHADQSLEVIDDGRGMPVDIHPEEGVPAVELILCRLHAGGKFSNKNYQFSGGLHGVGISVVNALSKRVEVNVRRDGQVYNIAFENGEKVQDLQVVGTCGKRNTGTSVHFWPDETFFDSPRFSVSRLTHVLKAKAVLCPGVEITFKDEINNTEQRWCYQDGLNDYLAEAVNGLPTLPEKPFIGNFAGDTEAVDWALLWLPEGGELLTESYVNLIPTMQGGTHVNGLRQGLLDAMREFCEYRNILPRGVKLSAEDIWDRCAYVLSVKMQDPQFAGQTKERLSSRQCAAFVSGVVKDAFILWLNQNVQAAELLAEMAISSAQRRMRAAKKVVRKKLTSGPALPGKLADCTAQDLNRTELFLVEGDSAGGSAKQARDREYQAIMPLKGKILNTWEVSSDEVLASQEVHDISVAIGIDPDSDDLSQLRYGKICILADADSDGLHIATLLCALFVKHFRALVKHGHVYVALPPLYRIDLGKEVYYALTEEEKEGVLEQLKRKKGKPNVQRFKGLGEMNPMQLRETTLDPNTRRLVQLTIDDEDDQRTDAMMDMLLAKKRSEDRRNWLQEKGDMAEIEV
T4 sequence (P0AFI2 whole entry): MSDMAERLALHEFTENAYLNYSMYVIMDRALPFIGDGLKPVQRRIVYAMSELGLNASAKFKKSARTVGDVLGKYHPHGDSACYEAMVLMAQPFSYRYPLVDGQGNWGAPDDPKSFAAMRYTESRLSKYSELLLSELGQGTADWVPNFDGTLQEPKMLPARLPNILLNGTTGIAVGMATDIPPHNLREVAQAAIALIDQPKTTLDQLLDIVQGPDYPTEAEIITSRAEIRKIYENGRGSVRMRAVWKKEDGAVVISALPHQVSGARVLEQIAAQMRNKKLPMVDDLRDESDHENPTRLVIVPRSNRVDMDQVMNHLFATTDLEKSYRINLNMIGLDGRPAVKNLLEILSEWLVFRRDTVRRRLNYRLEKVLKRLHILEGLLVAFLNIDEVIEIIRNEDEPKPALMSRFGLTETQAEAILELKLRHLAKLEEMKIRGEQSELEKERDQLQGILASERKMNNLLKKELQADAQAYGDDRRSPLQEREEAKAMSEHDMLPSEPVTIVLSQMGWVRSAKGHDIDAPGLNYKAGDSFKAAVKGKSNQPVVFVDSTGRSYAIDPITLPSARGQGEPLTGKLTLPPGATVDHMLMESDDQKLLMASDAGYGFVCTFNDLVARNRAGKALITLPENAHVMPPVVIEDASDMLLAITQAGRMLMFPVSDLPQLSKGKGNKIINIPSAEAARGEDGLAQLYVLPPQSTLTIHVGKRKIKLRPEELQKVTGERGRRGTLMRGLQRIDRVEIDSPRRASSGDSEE
Experimental: as §1, §2, §3, §4, §5, §6, §7, §8, §9, §10, §11, §12, §13, §14, §15

Structure (SMILES) | % inhibition Topo IV (Topoisomerase IV [1]) | % inhibition DNA gyrase (DNA gyrase [2]) | % inhibition DNA gyrase (DNA gyrase [3]) | % inhibition Topo IV (Topoisomerase IV [4])
O=C(NCCN1CCN(c2nccc3ccccc23)CC1)c1cc(=O)oc2ccccc12 [Compound 75, N-{2-[4-(isoquinolin-1-yl)piperazin-1-yl]ethyl}-2-oxo-2H-chromene-4-carboxamide hydrochloride] | n/a (n/a = not active) | 69% | 61% | n/a (n/a = not active)
COC(=O)C1CN(c2nccc3ccccc23)CCN1CCCNc1cc(=O)oc2ccccc12 (stereo not drawn) [Compound 81, methyl 4-(isoquinolin-1-yl)-1-{3-[(2-oxo-2H-chromen-4-yl)amino]propyl}piperazine-2-carboxylate hydrochloride] | n/a (n/a = not active) | 80% | n/a (n/a = not active) | n/a (n/a = not active)
O=C(O)C1CN(c2nccc3ccccc23)CCN1CCCNc1cc(=O)oc2ccccc12 (stereo not drawn) [Compound 82, 4-(isoquinolin-1-yl)-1-{3-[(2-oxo-2H-chromen-4-yl)amino]propyl}piperazine-2-carboxylic acid hydrochloride] | n/a (n/a = not active) | 85% | 82% | n/a (n/a = not active)
O=c1cc(NCCCN2CCN(c3nccc4ccccc34)CC2CC(F)(F)F)c2ccccc2o1 (stereo not drawn) [Compound 83, 4-({3-[4-(isoquinolin-1-yl)-2-(2,2,2-trifluoroethyl)piperazin-1-yl]propyl}amino)-2H-chromen-2-one hydrochloride] | n/a (n/a = not active) | 69% | n/a (n/a = not active) | n/a (n/a = not active)
COc1ccc2c(NCCCN3CCN(c4nccc5ccccc45)CC3)cc(=O)oc2c1 [Compound 85, 4-({3-[4-(isoquinolin-1-yl)piperazin-1-yl]propyl}amino)-7-methoxy-2H-chromen-2-one hydrochloride] | n/a (n/a = not active) | 78% | 86% | n/a (n/a = not active)
O=c1oc2ccccc2cc1NCCCN1CCN(c2nccc3ccccc23)CC1 [Compound 87, 3-({3-[4-(isoquinolin-1-yl)piperazin-1-yl]propyl}amino)-2H-chromen-2-one hydrochloride] | n/a (n/a = not active) | 79% | 96% | n/a (n/a = not active)
Cc1cccc2oc(=O)cc(NCCCN3CCN(c4nccc5ccc(F)cc45)CC3)c12 [Compound 96, 4-({3-[4-(7-fluoroisoquinolin-1-yl)piperazin-1-yl]propyl}amino)-5-methyl-2H-chromen-2-one hydrochloride] | n/a (n/a = not active) | 88% | 91% | n/a (n/a = not active)
Cc1c(NCCCN2CCN(c3nccc4ccc(F)cc34)CC2)c2ccccc2oc1=O [Compound 97, 4-({3-[4-(7-fluoroisoquinolin-1-yl)piperazin-1-yl]propyl}amino)-3-methyl-2H-chromen-2-one hydrochloride] | n/a (n/a = not active) | 85% | 86% | n/a (n/a = not active)
O=c1cc(NCCCN2CCN(c3nccc4ccc(F)cc34)CC2)c2ccc(O)cc2o1 [Compound 107, 4-({3-[4-(7-fluoroisoquinolin-1-yl)piperazin-1-yl]propyl}amino)-7-hydroxy-2H-chromen-2-one hydrochloride] | n/a (n/a = not active) | 92% | 74% | n/a (n/a = not active)
O=C(CN1CCC(Nc2cc(=O)oc3ccccc23)CC1)NCc1nccc2ccccc12 [Compound 118, N-(isoquinolin-1-ylmethyl)-2-{4-[(2-oxo-2H-chromen-4-yl)amino]piperidin-1-yl}acetamide] | n/a (n/a = not active) | 78% | n/a (n/a = not active) | n/a (n/a = not active)
O=c1cc(NCCCN2CCN(c3nccc4ccc(F)cc34)CC2)c2c(o1)CCNC2 [Compound 122, 4-({3-[4-(7-fluoroisoquinolin-1-yl)piperazin-1-yl]propyl}amino)-5,6,7,8-tetrahydro-2H-pyrano[3,2-c]pyridin-2-one hydrochloride] | n/a (n/a = not active) | 58% | n/a (n/a = not active) | n/a (n/a = not active)
C[N+]1(CCCc2nccc3ccccc23)CCC(Nc2cc(=O)oc3ccccc23)CC1 (stereo not drawn) [Compound 123] | n/a (n/a = not active) | 52% | n/a (n/a = not active) | n/a (n/a = not active)
O=C(O)C[C@@H](NC[C@@H](O)CN1CCN(c2nccc3ccc(F)cc23)CC1)c1ccccc1 [Compound 141, (3R)-3-({(2R)-3-[4-(7-fluoroisoquinolin-1-yl)piperazin-1-yl]-2-hydroxypropyl}amino)-3-phenylpropanoic acid] | n/a (n/a = not active) | n/a (n/a = not active) | 65% | n/a (n/a = not active)
O=C(O)C[C@@H](NC[C@H](O)CN1CCN(c2nccc3ccc(F)cc23)CC1)c1ccccc1 [Compound 142, (3R)-3-({(2S)-3-[4-(7-fluoroisoquinolin-1-yl)piperazin-1-yl]-2-hydroxypropyl}amino)-3-phenylpropanoic acid] | n/a (n/a = not active) | n/a (n/a = not active) | 52% | n/a (n/a = not active)
O=C(O)CC(NCCNC1CCN(c2nccc3ccc(F)cc23)CC1)C1CCCCC1 (stereo not drawn) [Compound 190, lithium 3-cyclohexyl-3-[(2-{[1-(7-fluoroisoquinolin-1-yl)piperidin-4-yl]amino}ethyl)amino]propanoate] | n/a (n/a = not active) | 61% | 73% | n/a (n/a = not active)
